Assay results as given in ChEMBL document CHEMBL1201862, “PubChem BioAssay data set” (2004).
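Cultured in 96-well plates, cells were exposed to test compound for 48 hours across five concentrations. Abbreviation: GI50, concentration required for 50% inhibition of growth.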 The source made the active and inactive calls. No stated cut-off is given here; in the data, active = GI50 up to about 1.1 µM and inactive = higher.

Columns and labels:
Assay in all cases: NCI-60 cell line screen, 48 h
CAKI-1 = system: CAKI-1
CCRF-CEM = system: CCRF-CEM
ACHN = system: ACHN
COLO 205 = system: COLO 205
NCI-H460 = system: NCI-H460
HOP-18 = system: HOP-18
LOX IMVI = system: LOX IMVI
SW-620 = system: SW-620
TK-10 = system: TK-10
HCT-15 = system: HCT-15
DLD-1 = system: DLD-1
UACC-257 = system: UACC-257
OVCAR-3 = system: OVCAR-3
OVCAR-5 = system: OVCAR-5
DMS-273 = system: DMS-273
K562 = system: K562
NCI-H226 = system: NCI-H226
786-0 = system: 786-0
HCC 2998 = system: HCC 2998
UO-31 = system: UO-31
RXF 393 = system: RXF 393
SK-OV-3 = system: SK-OV-3
KM12 = system: KM12
SK-MEL-28 = system: SK-MEL-28
NCI-H23 = system: NCI-H23
XF498 = system: XF498
M14 = system: M14
UACC-62 = system: UACC-62
HCT-116 = system: HCT-116
HL-60 = system: HL-60
EKVX = system: EKVX
SNB-19 = system: SNB-19
RXF 631 = system: RXF 631
U-251 = system: U-251
OVCAR-8 = system: OVCAR-8
NCI-H522 = system: NCI-H522
HT-29 = system: HT-29
KM-20L2 = system: KM-20L2
SF-539 = system: SF-539
A549 = system: A549
HOP-62 = system: HOP-62
SN12C = system: SN12C
SK-MEL-5 = system: SK-MEL-5
A498 = system: A498
SF-268 = system: SF-268
SNB-75 = system: SNB-75
SK-MEL-2 = system: SK-MEL-2
LXFL 529 = system: LXFL 529
HOP-92 = system: HOP-92
SNB-78 = system: SNB-78
DMS-114 = system: DMS-114
SF-295 = system: SF-295
IGROV-1 = system: IGROV-1
RPMI-8226 = system: RPMI-8226
Malme-3M = system: Malme-3M
MOLT-4 = system: MOLT-4

SMILES: Cc1ccc(NC(=O)C2C(=O)N(c3ccc(C)c(C)c3)C(=O)/C2=N/O)cc1C (stereo unspecified)
- GI50 (CAKI-1): > 100 µM (inactive)
- GI50 (CCRF-CEM): > 100 µM (inactive)
- GI50 (ACHN): > 100 µM (inactive)
- GI50 (COLO 205): > 100 µM (inactive)
- GI50 (NCI-H460): 44.7 µM (inactive)
- GI50 (HOP-18): > 100 µM (inactive)
- GI50 (LOX IMVI): 20.9 µM (inactive)
- GI50 (SW-620): 19.3 µM (inactive)
- GI50 (TK-10): > 100 µM (inactive)
- GI50 (HCT-15): > 100 µM
- GI50 (DLD-1): > 100 µM (inactive)
- GI50 (UACC-257): > 100 µM (inactive)
- GI50 (OVCAR-3): > 100 µM (inactive)
- GI50 (OVCAR-5): > 100 µM (inactive)
- GI50 (DMS-273): > 100 µM (inactive)
- GI50 (K562): > 100 µM (inactive)
- GI50 (NCI-H226): > 100 µM (inactive)
- GI50 (786-0): 68.1 µM (inactive)
- GI50 (HCC 2998): > 100 µM (inactive)
- GI50 (UO-31): > 100 µM (inactive)
- GI50 (RXF 393): > 100 µM (inactive)
- GI50 (SK-OV-3): > 100 µM (inactive)
- GI50 (KM12): > 100 µM (inactive)
- GI50 (SK-MEL-28): > 100 µM (inactive)
- GI50 (NCI-H23): > 100 µM (inactive)
- GI50 (XF498): > 100 µM (inactive)
- GI50 (M14): > 100 µM (inactive)
- GI50 (UACC-62): > 100 µM (inactive)
- GI50 (HCT-116): > 100 µM (inactive)
- GI50 (HL-60): > 100 µM (inactive)
- GI50 (EKVX): > 100 µM (inactive)
- GI50 (SNB-19): > 100 µM (inactive)
- GI50 (RXF 631): > 100 µM (inactive)
- GI50 (U-251): > 100 µM (inactive)
- GI50 (OVCAR-8): > 100 µM (inactive)
- GI50 (NCI-H522): > 100 µM (inactive)
- GI50 (HT-29): > 100 µM (inactive)
- GI50 (KM-20L2): > 100 µM (inactive)
- GI50 (SF-539): > 100 µM (inactive)
- GI50 (A549): > 100 µM (inactive)
- GI50 (HOP-62): > 100 µM (inactive)
- GI50 (SN12C): > 100 µM (inactive)
- GI50 (SK-MEL-5): > 100 µM (inactive)
- GI50 (A498): > 100 µM (inactive)
- GI50 (SF-268): > 100 µM (inactive)
- GI50 (SNB-75): > 100 µM (inactive)
- GI50 (SK-MEL-2): > 100 µM (inactive)
- GI50 (LXFL 529): > 100 µM (inactive)
- GI50 (HOP-92): > 100 µM (inactive)
- GI50 (SNB-78): > 100 µM (inactive)
- GI50 (DMS-114): > 100 µM (inactive)
- GI50 (SF-295): > 100 µM (inactive)
- GI50 (IGROV-1): > 100 µM (inactive)
- GI50 (RPMI-8226): > 100 µM (inactive)
- GI50 (Malme-3M): > 100 µM (inactive)
- GI50 (MOLT-4): > 100 µM (inactive)
